Data reported in patent US20170368082A1, “FORMULATIONS OF BRINCIDOFOVIR” (priority 2016, published 2017).

Legend:
[1] = IV BCV single ascending dose study in healthy subjects: safety; format: in vivo, human
Method: Plasma PK samples were collected over 7 days and assayed by HPLC-MS. Plasma BCV PK parameters were determined by non-compartmental analysis and dose proportionality was assessed. Safety assessments were collected over 14 days.

[2] = Maximum tolerated dose study, single 2-hour IV infusion (Phase 1); format: in vivo, Sprague-Dawley CD rats
Method: For Phase 1, Sprague-Dawley CD® rats (2/sex/dosing interval) were dosed with brincidofovir via 2-hour IV infusion once at 2, 4, 10 or 15 mg/kg. The maximum feasible dose (MFD) was limited to 15 mg/kg because of increased hemolytic potential when the concentration of brincidofovir exceeds 1 mg/mL in the dosing solution. The dose volume was 10 mL/kg/hr for all dosing intervals. Each dose administration was followed by a 2-3 day observation period. At the end of the Phase 1 treatment period, all animals were euthanized and discarded without macroscopic examination.
For Phase 1 (MTD), up to four dose levels of brincidofovir were administered as escalating single doses in naïve male and female rats via intravenous infusion (2-hour). Each dose administration was followed by a 2-3 day observation period. Each subsequent dose level was increased and administered to naïve animals based on the response to the preceding doses until the maximum tolerated dose (MTD) was identified, or until the maximum feasible dose (MFD) based on prior evidence of hemolysis of 15 mg/kg was achieved.
During Phase 1, each animal received a single dose administered via intravenous infusion (2-hours), followed by a 2-3 day observation period after each dose interval. Following the single intravenous (2-hour) infusion, the animals had their jackets and dosing sets removed and were not returned to saline maintenance.
For dose observations, Phase 1: Signs of poor health or toxic or pharmacologic effects (e.g., abnormalities in general condition, appearance, activity, behavior, respiration, etc.) observed during infusion period were recorded.

[3] = PBMC PK of CDV-PP following IV and oral suspension BCV; format: in vivo, human; conditions: BCV 50 mg, 2- or 4-h IV infusion
Method: Two single dose BCV studies in healthy subjects contributed data for this analysis. The first study was a 2-period crossover bioequivalence study that enrolled 24 subjects who received two formulations of BCV oral suspension 100 mg fasted, one in each period. Data from 12 subjects who had PBMCs collected in Period 1 were included in this analysis; these subjects were 100% female, 31-59 years, and 58-88 kg. The second study, outlined above, enrolled 40 subjects who received IV BCV or placebo. Data from 18 subjects who received BCV 50 mg as either a 2-h or 4-h IV infusion were included in this analysis; these subjects were 100% male, 18-46 years, 64-106 kg. Serial PBMC samples were collected over 14 days and assayed by HPLC-MS-MS. PBMC CDV-PP PK parameters were determined by non-compartmental analysis.

[4] = Stability study I (with dextrose): accelerated stability study; format: physicochemical
Method: Testing of the chemical degradation was performed in an accelerated stability study setup applying heat as an accelerator/stressor. An Arrhenius analysis was carried out providing an API half-life and a degradation rate at lower temperatures. Physical stability was evaluated at the desired storage temperature (2-8° C.); a benchmark/reference condition was likewise included in the study. The setup of the study is specified below:
Accelerated stability study: 50° C., 60° C., 65° C., 70° C., 75° C.,
Accelerated stability study: initial, 2, 6, 9, 14 days,
appearance, pH, c(BCV) recovery (HPLC), purity (HPLC), and liquid particle counting (physical degradation and benchmark stability study),
The stability testing results (accelerated conditions), i.e., the changes of pH and trends of brincidofovir recovery over the course of the stability study are summarized in Table 8 and Table 9 for the formulations at 10 mg/mL and 15 mg/mL respectively.

[5] = Cohort 1, BCV 10 mg 2 h infusion, n = 6
[6] = Cohort 2, BCV 25 mg 2 h infusion, n = 6
[7] = Cohort 3, BCV 50 mg 2 h infusion, n = 9
[8] = Cohort 4, BCV 50 mg 4 h infusion, n = 9

CCCCCCCCCCCCCCCCOCCCOP(=O)(O)CO[C@H](CO)Cn1ccc(N)nc1=O [Brincidofovir]
Drug-Related AEs: Decreased appetite (number of subjects) [1, 5]: 0 | Drug-Related AEs: Diarrhea (number of subjects) [1, 5]: 0 | Drug-Related AEs: Elevated liver transaminases (number of subjects) [1, 5]: 0 | Drug-Related AEs: Headache (number of subjects) [1, 5]: 0 | Drug-Related AEs: Nausea (number of subjects) [1, 5]: 0 | Drug-Related AEs: Pain, phlebitis at infusion site (number of subjects) [1, 5]: 0 | Grade 3 or 4 Drug-Related AEs: Decreased appetite (number of subjects) [1, 5]: 0 | Grade 3 or 4 Drug-Related AEs: Diarrhea (number of subjects) [1, 5]: 0 | Grade 3 or 4 Drug-Related AEs: Elevated liver transaminases (number of subjects) [1, 5]: 0 | Grade 3 or 4 Drug-Related AEs: Headache (number of subjects) [1, 5]: 0 | Grade 3 or 4 Drug-Related AEs: Nausea (number of subjects) [1, 5]: 0 | Grade 3 or 4 Drug-Related AEs: Pain, phlebitis at infusion site (number of subjects) [1, 5]: 0 | Drug-Related AEs: Decreased appetite (number of subjects) [1, 6]: 0 | Drug-Related AEs: Diarrhea (number of subjects) [1, 6]: 0 | Drug-Related AEs: Elevated liver transaminases (number of subjects) [1, 6]: 0 | Drug-Related AEs: Headache (number of subjects) [1, 6]: 0 | Drug-Related AEs: Nausea (number of subjects) [1, 6]: 0 | Drug-Related AEs: Pain, phlebitis at infusion site (number of subjects) [1, 6]: 0 | Grade 3 or 4 Drug-Related AEs: Decreased appetite (number of subjects) [1, 6]: 0 | Grade 3 or 4 Drug-Related AEs: Diarrhea (number of subjects) [1, 6]: 0 | Grade 3 or 4 Drug-Related AEs: Elevated liver transaminases (number of subjects) [1, 6]: 0 | Grade 3 or 4 Drug-Related AEs: Headache (number of subjects) [1, 6]: 0 | Grade 3 or 4 Drug-Related AEs: Nausea (number of subjects) [1, 6]: 0 | Grade 3 or 4 Drug-Related AEs: Pain, phlebitis at infusion site (number of subjects) [1, 6]: 0 | Drug-Related AEs: Decreased appetite (number of subjects) [1, 7]: 0 | Drug-Related AEs: Diarrhea (% of subjects) [1, 7]: (11%) | Drug-Related AEs: Diarrhea (number of subjects) [1, 7]: 1 | Drug-Related AEs: Elevated liver transaminases (number of subjects) [1, 7]: 0 | Drug-Related AEs: Headache (% of subjects) [1, 7]: (22%) | Drug-Related AEs: Headache (number of subjects) [1, 7]: 2 | Drug-Related AEs: Nausea (number of subjects) [1, 7]: 0 | Drug-Related AEs: Pain, phlebitis at infusion site (% of subjects) [1, 7]: (11%) | Drug-Related AEs: Pain, phlebitis at infusion site (number of subjects) [1, 7]: 1 | Grade 3 or 4 Drug-Related AEs: Decreased appetite (number of subjects) [1, 7]: 0 | Grade 3 or 4 Drug-Related AEs: Diarrhea (number of subjects) [1, 7]: 0 | Grade 3 or 4 Drug-Related AEs: Elevated liver transaminases (number of subjects) [1, 7]: 0 | Grade 3 or 4 Drug-Related AEs: Headache (number of subjects) [1, 7]: 0 | Grade 3 or 4 Drug-Related AEs: Nausea (number of subjects) [1, 7]: 0 | Grade 3 or 4 Drug-Related AEs: Pain, phlebitis at infusion site (number of subjects) [1, 7]: 0 | Drug-Related AEs: Decreased appetite (% of subjects) [1, 8]: (11%) | Drug-Related AEs: Decreased appetite (number of subjects) [1, 8]: 1 | Drug-Related AEs: Diarrhea (% of subjects) [1, 8]: (33%) | Drug-Related AEs: Diarrhea (number of subjects) [1, 8]: 3 | Drug-Related AEs: Elevated liver transaminases (% of subjects) [1, 8]: (11%) | Drug-Related AEs: Elevated liver transaminases (number of subjects) [1, 8]: 1 | Drug-Related AEs: Headache (% of subjects) [1, 8]: (22%) | Drug-Related AEs: Headache (number of subjects) [1, 8]: 2 | Drug-Related AEs: Nausea (% of subjects) [1, 8]: (22%) | Drug-Related AEs: Nausea (number of subjects) [1, 8]: 2 | Drug-Related AEs: Pain, phlebitis at infusion site (number of subjects) [1, 8]: 0 | Grade 3 or 4 Drug-Related AEs: Decreased appetite (number of subjects) [1, 8]: 0 | Grade 3 or 4 Drug-Related AEs: Diarrhea (number of subjects) [1, 8]: 0 | Grade 3 or 4 Drug-Related AEs: Elevated liver transaminases (% of subjects) [1, 8]: (11%) | Grade 3 or 4 Drug-Related AEs: Elevated liver transaminases (number of subjects) [1, 8]: 1 | Grade 3 or 4 Drug-Related AEs: Headache (number of subjects) [1, 8]: 0 | Grade 3 or 4 Drug-Related AEs: Nausea (number of subjects) [1, 8]: 0 | Grade 3 or 4 Drug-Related AEs: Pain, phlebitis at infusion site (number of subjects) [1, 8]: 0 | Adverse events ([1]; IV 10 mg and 25 mg): No drug related adverse events | Safety and tolerability ([1]; IV 10 mg and 25 mg): generally safe and well-tolerated | Bilirubin ([1]; any cohort): No Grade 2 or higher bilirubin | ALT elevations ([1]; cohort 4): transient grade 2-3 ALT elevations | Serious adverse events ([1]; human, in vivo): no serious adverse events occurred | Tolerability ([1]; single doses 10-50 mg, 2h IV infusion): well tolerated | ALT elevations ([1]; therapeutic IV exposures (cohorts 1 and 2)): no grade 2 or higher ALT elevations were observed | Survival ([2]; 2, 4, 10 or 15 mg/kg): survived until their scheduled euthanasia | Tolerability ([2]; 2, 4, 10 or 15 mg/kg single 2-hour IV infusion): all doses were well tolerated | Clinical signs ([2]; Dose 1 (2 mg/kg), both males): rapid breath and hunched posture, with and without piloerection, partially closed eyes, and decreased activity | Clinical signs ([2]; Dose 2 (4 mg/kg), both males and one female): irregular breathing | Clinical signs ([2]; Dose 3 (10 mg/kg)): No clinical signs were observed | Clinical signs ([2]; Dose 4 (15 mg/kg), both males and one female): decreased activity with or without irregular breathing, piloerection, and bilateral partially closed eyes | Maximum feasible dose (MFD) ([2]; single 2-hour IV infusion): 15 mg/kg | Intracellular CDV-PP exposure vs BCV 100 mg oral suspension [3]: comparable | Degradation of brincidofovir over two weeks ([4]; 50 °C): 16% | Degradation of brincidofovir over two weeks ([4]; 75 °C): 22% | Impurities ([4]; 75 °C station, both starting concentrations): up to 16%
